Assay results taken from patent US20230398125A1, “TREATING HEPATITIS” (Albireo AB, priority 2022, published 2023).
Marks after values point to notes of the source that are not given here.

How the values were obtained:
[1] = Body weight, mortality and observations in HBV-infected PXB mice; format: in vivo; conditions: 10 and 30 mg/kg
HBV genotype C = assay: Serum HBV DNA in HBV-infected PXB mice; format: in vivo, hepatitis B virus; conditions: for serum HBV DNA levels: HBV-infected PXB mice, group mean, assay limit 4×10^4 copies/mL serum
Protocol: Target volume of blood was collected from all surviving animals under isoflurane anesthesia via the retro-orbital plexus/sinus using Intramedic™ Polyethylene Tubing at each time point. Two microliters (2 μL) from the collected blood were used for human albumin measurements. The remaining blood was centrifuged to separate serum to be used for analyzing the indicated biomarkers. Blood samples were collected according to Table 8.
The individual blood samples of the animals were left at room temperature for at least 5 minutes to coagulate and then centrifuged at 13200×g, 4° C. for 3 minutes to obtain serum. The serum was divided into separate labeled microtubes and stored at −80° C. until analysis.
Real-time PCR detection was used to measure the serum HBV DNA concentration using the KUBIX HBV qPCR Kit (KUBIX Inc.) and CFX96 Touch™ Real-Time PCR Detection System (Bio-Rad Laboratories, Inc., Hercules, Calif., USA). Ten microliters (10 μL) of the HBV 2×PCR Solution were added into 10 μL of the heated sample. The initial activation was conducted at 95° C. for 2 minutes. Subsequent PCR amplification consisted of 45 cycles of denaturation at 95° C. for 5 seconds and annealing and extension at 54° C. for 30 seconds per cycle in a CFX96 Touch™ Real-Time PCR Detection System. The average serum HBV DNA level was calculated from the values of the two separate wells.
The lowest quantification limit of this assay was 4×10^4 copies/mL serum.

NTCP-HepG2 cells = assay: MTT cytotoxicity assay; format: cell-based, human; conditions: 1 nM-100 μM, HepG2 cells expressing NTCP
Protocol: The In Vitro Toxicology Assay Kit (Sigma-Aldrich) was used to perform a 3-[4,5-dimethylthiazole-2-yl]-2,5-diphenyltetrazolium bromide (MTT) assay to measure the cytotoxicity of the test item according to the manufacturer's protocol. Briefly, NTCP-HepG2 cells were incubated with 100 μL of the indicated concentrations of the test item solved in Hepatocyte Growth Medium (HGM) over 6 h at 37° C. After 6 h, medium was replaced by inhibitor-free HGM and cells were cultured for additional 24 h. Then medium was removed and 100 μL DMEM containing 0.5 mg/mL MTT was added and cells were incubated for 1 h at 37° C. Finally, the medium was replaced by 100 μL isopropyl alcohol (Sigma-Aldrich) and samples were measured by Glo-Max-Multi Detection System (Promega, Madison, Wis., USA). See also Lowjaga K A A, et al. (2020). Long-term trans-inhibition of the hepatitis B and D virus receptor NTCP by taurolithocholic acid. Am J Physiol Gastrointest Liver Physiol 320(1):G66-G80; and Kirstgen et al. 2021.

Human NTCP = biological target: T1, Human NTCP (Homo sapiens, UniProt Q14973); assay: Time course of dissociation (washout), [3H]taurocholate uptake in hNTCP CHO cells; format: cell-based; conditions: 1 μM for 15 min, 6 hours postwashout; read-out: inhibition of human NTCP BA transport activity after washout
T1 construct: expressed in transfected cells; peptide purchased from Pharmaron
T1 sequence (Q14973 1-349): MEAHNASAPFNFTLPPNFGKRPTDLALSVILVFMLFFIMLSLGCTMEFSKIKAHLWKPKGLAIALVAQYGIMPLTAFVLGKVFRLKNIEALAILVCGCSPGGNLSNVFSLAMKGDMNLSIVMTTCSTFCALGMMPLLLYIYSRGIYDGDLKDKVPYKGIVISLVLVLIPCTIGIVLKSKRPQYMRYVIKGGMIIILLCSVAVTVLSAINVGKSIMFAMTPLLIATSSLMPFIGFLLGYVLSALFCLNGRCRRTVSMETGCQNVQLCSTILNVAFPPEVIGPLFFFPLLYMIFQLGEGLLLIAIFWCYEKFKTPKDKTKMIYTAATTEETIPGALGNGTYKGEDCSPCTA
Protocol: This study was performed using a [^3H]taurocholate uptake assay protocol. Stably transfected CHO cells expressing human NTCP (hNTCP) were seeded onto 24 well plates at a density of 1.5-2.0×10^5 cells/well in CHO cell media (DMEM/F12 media supplemented with 10% FBS, Penicillin/Streptomycin) plus Geneticin (G418) to maintain selection in culture. After overnight incubation, the media was replaced, and CHO cells were treated with 10 mM sodium butyrate to induce transporter expression (final concentration=[…]). Twenty-four h later, the media was removed, and cells were washed with warm (37° C.) Hanks balanced salt solution (HBSS) containing sodium (Na+). Cells were then incubated with 1 μM of the test inhibitors or vehicle (DMSO) for 15 min in CHO cell media at 37° C. […]
For the [^3H]taurocholate uptake assay, the media was aspirated at the end of each washout period, and cells were washed three times with warm Hanks balanced salt solution (HBSS) containing sodium (Na+). […] Duplicate 100 μL aliquots of the lysate were transferred to vials with scintillation liquid and counted after neutralization and overnight quenching. Cell-associated protein was measured in duplicate using the BCA protein assay, and cell-associated radioactivity was normalized to protein content.

For `CCCCC1CN(c2ccccc2)c2cc(SC)c(O/C=C(\F)C(=O)O)cc2S(=O)(=O)N1C` (stereo not shown) [Compound 1, (Z)-3-((3-butyl-2-methyl-7-(methylthio)-1,1-dioxido-5-phenyl-2,3,4,5-tetrahydro-1,2,5-benzothiadiazepin-8-yl)oxy)-2-fluoroacrylic acid], the “observations related to treatment” value [1] was “No noteworthy observations”, the “serum HBV DNA compared to controls” value (HBV genotype C; 30 mg/kg, Day 7) was “lower” and the “serum HBV DNA levels” value (HBV genotype C; 10 mg/kg p.o. once daily Day 0-14, Day 0 (pre-dose)) was 4.0 × 10^4. The “serum HBV DNA levels” value (HBV genotype C; 10 mg/kg p.o. once daily Day 0-14, Day 7) was 1.4 × 10^5, the “serum HBV DNA levels” value (HBV genotype C; 10 mg/kg p.o. once daily Day 0-14, Day 14) was 8.5 × 10^5 and the “serum HBV DNA levels” value (HBV genotype C; 10 mg/kg p.o. once daily Day 0-14, Day 21) was 1.3 × 10^6. The “serum HBV DNA levels” value (HBV genotype C; 10 mg/kg p.o. once daily Day 0-14, Day 28) was 8.5 × 10^6, the “serum HBV DNA levels” value (HBV genotype C; 10 mg/kg p.o. once daily Day 0-14, Day 35) was 2.7 × 10^7* and the “serum HBV DNA levels” value (HBV genotype C; 10 mg/kg p.o. once daily Day 0-14, Day 42) was 1.2 × 10^8*. For the same compound, the “serum HBV DNA levels” value (HBV genotype C; 30 mg/kg p.o. once daily Day 0-14, Day 0 (pre-dose)) was 4.0 × 10^4, the “serum HBV DNA levels” value (HBV genotype C; 30 mg/kg p.o. once daily Day 0-14, Day 7) was 6.1 × 10^4 and the “serum HBV DNA levels” value (HBV genotype C; 30 mg/kg p.o. once daily Day 0-14, Day 14) was 1.9 × 10^5. The “serum HBV DNA levels” value (HBV genotype C; 30 mg/kg p.o. once daily Day 0-14, Day 21) was 3.1 × 10^5, the “serum HBV DNA levels” value (HBV genotype C; 30 mg/kg p.o. once daily Day 0-14, Day 28) was 2.7 × 10^6 and the “serum HBV DNA levels” value (HBV genotype C; 30 mg/kg p.o. once daily Day 0-14, Day 35) was 1.1 × 10^7. The “serum HBV DNA levels” value (HBV genotype C; 30 mg/kg p.o. once daily Day 0-14, Day 42) was 5.4 × 10^7, the “effect against HBV genotype C infection in PXB-mice” value (HBV genotype C; oral dosing before HBV infection) was “prophylactic effects” and the “cytotoxic effects (MTT)” value (NTCP-HepG2 cells) was “no cytotoxic effects”. It also gave an inhibition at 1 µM (Human NTCP) greater than 50%.
